# Data: ChEMBL document CHEMBL4138153, “Synthesis, monoamine oxidase inhibition activity and molecular docking studies of novel 4-hydroxy-N'-[benzylidene or 1-phenylethylidene]-2-H/methyl/benzyl-1,2-benzothiazine-3-carbohydrazide 1,1-dioxides” (Eur J Med Chem, 2018)
# How the values were obtained:
# [1] = target: T1, Amine oxidase [flavin-containing] A (Rattus norvegicus, UniProt P21396); assay: Inhibition of MAO-A in rat liver mitochondria using p-tyramine as substrate preincubated for 10 mins followed by substrate addition measured after 30 mins in presence of MAO-B inhibitor deprenyl by Amplex red dye-based fluorescence assay
# T1 sequence (P21396 whole entry): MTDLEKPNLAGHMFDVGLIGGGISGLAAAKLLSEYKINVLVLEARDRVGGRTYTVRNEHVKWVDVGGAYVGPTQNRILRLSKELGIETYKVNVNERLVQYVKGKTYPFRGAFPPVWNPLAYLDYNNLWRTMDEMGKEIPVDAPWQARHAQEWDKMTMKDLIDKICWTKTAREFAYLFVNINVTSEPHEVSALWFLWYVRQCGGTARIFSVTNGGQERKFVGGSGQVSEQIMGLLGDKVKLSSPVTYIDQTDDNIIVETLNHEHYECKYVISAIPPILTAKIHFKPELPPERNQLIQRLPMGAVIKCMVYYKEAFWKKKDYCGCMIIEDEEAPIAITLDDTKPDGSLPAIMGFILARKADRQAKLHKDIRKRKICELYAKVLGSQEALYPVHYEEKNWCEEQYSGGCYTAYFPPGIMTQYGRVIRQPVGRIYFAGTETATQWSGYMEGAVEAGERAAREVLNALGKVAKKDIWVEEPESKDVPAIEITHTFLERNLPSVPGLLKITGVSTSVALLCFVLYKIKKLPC
# [2] = target: T2, Amine oxidase [flavin-containing] B (Rattus norvegicus, UniProt P19643); assay: Inhibition of MAO-B in rat liver mitochondria using p-tyramine as substrate preincubated for 10 mins followed by substrate addition measured after 30 mins in presence of MAO-A inhibitor clorgyline by Amplex red dye-based fluorescence assay
# T2 sequence (P19643 whole entry): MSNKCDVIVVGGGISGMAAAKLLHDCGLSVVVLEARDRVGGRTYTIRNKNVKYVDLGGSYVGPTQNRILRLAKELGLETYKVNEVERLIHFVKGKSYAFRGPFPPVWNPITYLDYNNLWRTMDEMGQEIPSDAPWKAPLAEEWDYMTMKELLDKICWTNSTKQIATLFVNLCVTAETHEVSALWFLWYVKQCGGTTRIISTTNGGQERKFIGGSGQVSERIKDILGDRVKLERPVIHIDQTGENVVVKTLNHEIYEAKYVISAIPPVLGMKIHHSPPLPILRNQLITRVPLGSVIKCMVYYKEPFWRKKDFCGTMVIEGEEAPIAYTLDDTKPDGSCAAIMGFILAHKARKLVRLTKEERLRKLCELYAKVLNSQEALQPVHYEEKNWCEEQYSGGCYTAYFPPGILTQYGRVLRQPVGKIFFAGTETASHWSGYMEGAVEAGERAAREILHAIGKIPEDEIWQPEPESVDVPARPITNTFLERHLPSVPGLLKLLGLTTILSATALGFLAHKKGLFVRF
# [3] = organism: Rattus norvegicus; assay: Selectivity index, ratio of IC50 for MAO-A in rat liver mitochondria to IC50 for MAO-B in rat liver mitochondria
# [4] = target: T2, Amine oxidase [flavin-containing] B; assay: Competitive inhibition of MAO-B in rat liver mitochondria using p-tyramine as substrate up to 0.3 uM preincubated for 10 mins followed by substrate addition measured after 30 mins by Lineweaver-burk plot analysis; conditions: 0.5 h
# [5] = target: T1, Amine oxidase [flavin-containing] A; assay: Competitive inhibition of MAO-A in rat liver mitochondria using p-tyramine as substrate up to 0.15 uM preincubated for 10 mins followed by substrate addition measured after 30 mins by Lineweaver-burk plot analysis; conditions: 0.5 h
IC50 [1] [µM],IC50 [2] [µM],Ratio IC50 [3],inhibition (INH) [4],inhibition (INH) [5],Compound
28.3,5.78,4.89,,,CCOc1ccc(/C=N/NC(=O)C2=C(O)c3ccccc3S(=O)(=O)N2Cc2ccccc2)cc1
5.07,9.47,0.53,,,O=C(N/N=C/c1ccccc1O)C1=C(O)c2ccccc2S(=O)(=O)N1
≥ 100,6.04,> 16.5,,,C/C(=N\NC(=O)C1=C(O)c2ccccc2S(=O)(=O)N1Cc1ccccc1)c1ccc(F)cc1
21.1,1.76,11.9,,,CN1C(C(=O)N/N=C/c2ccccc2)=C(O)c2ccccc2S1(=O)=O
≥ 100,0.99,> 101,,,O=C(NN=C1CCCC1)C1=C(O)c2ccccc2S(=O)(=O)N1Cc1ccccc1
2.97,0.21,14.1,Active,,COC(=O)C1=C(O)c2ccccc2S(=O)(=O)N1
4.85,24.1,0.2,,,Cc1ccc(/C=N/NC(=O)C2=C(O)c3ccccc3S(=O)(=O)N2C)cc1
0.96,36.4,0.02,,,O=C(N/N=C/c1cccc(Cl)c1)C1=C(O)c2ccccc2S(=O)(=O)N1Cc1ccccc1
5.76,1.91,3.02,,,COc1ccc(/C=N/NC(=O)C2=C(O)c3ccccc3S(=O)(=O)N2)cc1
29.8,38.3,0.78,,,CN1C(C(=O)N/N=C/c2cccc(Cl)c2)=C(O)c2ccccc2S1(=O)=O
≥ 100,10.9,> 9.17,,,C/C(=N\NC(=O)C1=C(O)c2ccccc2S(=O)(=O)N1)c1ccc(Cl)cc1
6.12,15.5,0.39,,,CN1C(C(=O)N/N=C/c2ccc(Cl)cc2)=C(O)c2ccccc2S1(=O)=O
1.91,8.86,0.21,,,O=C(N/N=C/c1ccccc1)C1=C(O)c2ccccc2S(=O)(=O)N1
1.22,2.26,0.54,,,C/C(=N\NC(=O)C1=C(O)c2ccccc2S(=O)(=O)N1Cc1ccccc1)c1ccccc1
1.11,0.27,4.11,,,COC(=O)CN1C(=O)c2ccccc2S1(=O)=O
16.9,9.31,1.81,,,CCOc1ccc(/C=N/NC(=O)C2=C(O)c3ccccc3S(=O)(=O)N2)cc1
18.9,23.1,0.82,,,COc1ccc(/C=N/NC(=O)C2=C(O)c3ccccc3S(=O)(=O)N2C)cc1
≥ 100,38.1,> 2.62,,,CC(C)c1ccc(/C=N/NC(=O)C2=C(O)c3ccccc3S(=O)(=O)N2)cc1
18.7,4.24,4.41,,,O=C(N/N=C/c1ccccc1O)C1=C(O)c2ccccc2S(=O)(=O)N1Cc1ccccc1
≥ 100,10.6,> 9.43,,,NNC(=O)C1=C(O)c2ccccc2S(=O)(=O)N1Cc1ccccc1
11.4,3.41,3.34,,,CN1C(C(=O)N/N=C/c2ccccc2O)=C(O)c2ccccc2S1(=O)=O
0.44,18.2,0.02,,,CC(C)c1ccc(/C=N/NC(=O)C2=C(O)c3ccccc3S(=O)(=O)N2C)cc1

IC50 [1] [µM],IC50 [2] [µM],Ratio IC50 [3],inhibition (INH) [4],inhibition (INH) [5],Compound
9.51,0.29,32.8,,,COC(=O)C1=C(O)c2ccccc2S(=O)(=O)N1Cc1ccccc1
6.67,7.14,0.93,,,C/C(=N\NC(=O)C1=C(O)c2ccccc2S(=O)(=O)N1C)c1ccccc1
7.48,0.64,11.7,,,Cc1ccc(/C=N/NC(=O)C2=C(O)c3ccccc3S(=O)(=O)N2)cc1
10.8,25.1,0.43,,,C/C(=N\NC(=O)C1=C(O)c2ccccc2S(=O)(=O)N1C)c1ccc(F)cc1
0.33,10.1,0.03,,,C/C(=N\NC(=O)C1=C(O)c2ccccc2S(=O)(=O)N1Cc1ccccc1)c1ccc(Cl)cc1
≥ 100,89.1,> 1.12,,,Cc1ccc(/C=N/NC(=O)C2=C(O)c3ccccc3S(=O)(=O)N2Cc2ccccc2)cc1
0.32,0.76,0.42,,,CCOc1ccc(/C=N/NC(=O)C2=C(O)c3ccccc3S(=O)(=O)N2C)cc1
≥ 100,0.92,> 109,,,O=C(NN=C1CCCC1)C1=C(O)c2ccccc2S(=O)(=O)N1
0.177,0.31,0.57,,,O=C(N/N=C/c1ccc(Cl)cc1)C1=C(O)c2ccccc2S(=O)(=O)N1
53.4,40.3,1.32,,,C/C(=N\NC(=O)C1=C(O)c2ccccc2S(=O)(=O)N1)c1ccc(F)cc1
0.38,8.61,0.04,,,CN1C(C(=O)NN=C2CCCC2)=C(O)c2ccccc2S1(=O)=O
26.6,23.1,1.15,,,COC(=O)C1=C(O)c2ccccc2S(=O)(=O)N1C
0.35,39.3,0.01,,,O=C(N/N=C/c1cccc(Cl)c1)C1=C(O)c2ccccc2S(=O)(=O)N1
0.24,0.29,0.83,,,COc1ccc(/C=N/NC(=O)C2=C(O)c3ccccc3S(=O)(=O)N2Cc2ccccc2)cc1
0.11,3.33,0.03,,Active,C/C(=N\NC(=O)C1=C(O)c2ccccc2S(=O)(=O)N1)c1ccccc1
1.58,4.33,0.36,,,NNC(=O)C1=C(O)c2ccccc2S(=O)(=O)N1
0.12,1.5,0.08,,,CN1C(C(=O)NN)=C(O)c2ccccc2S1(=O)=O
5.07,36.8,0.13,,,CC(C)c1ccc(/C=N/NC(=O)C2=C(O)c3ccccc3S(=O)(=O)N2Cc2ccccc2)cc1
≥ 100,9.52,> 10.5,,,O=C(N/N=C/c1ccccc1)C1=C(O)c2ccccc2S(=O)(=O)N1Cc1ccccc1
≥ 100,2.08,> 48.1,,,O=C(N/N=C/c1ccc(Cl)cc1)C1=C(O)c2ccccc2S(=O)(=O)N1Cc1ccccc1
11.2,0.76,14.7,,,C/C(=N\NC(=O)C1=C(O)c2ccccc2S(=O)(=O)N1C)c1ccc(Cl)cc1
